From PubChem BioAssay (NCI)
Values joined by “and” are separate entries in the source; they are usually repeats but may differ in a detail not shown here. Equal entries are not always repeated.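 Results reflect a 48-hour exposure of cells in 96-well plates to compound at five concentrations. Here, GI50 denotes the concentration required for 50% inhibition of growth. TGI marks complete inhibition of growth.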

What was measured:
Experiment in all cases: NCI anticancer screen, dose series, 48 h
OVCAR-4 ovarian = system: OVCAR-4 ovarian
MDA-MB-435 = system: MDA-MB-435
NCI-H226 lung = system: NCI-H226 lung
EKVX NSCLC = system: EKVX NSCLC
MCF7 breast = system: MCF7 breast
SK-OV-3 ovarian = system: SK-OV-3 ovarian
SK-MEL-2 melanoma = system: SK-MEL-2 melanoma
HCT-15 colon = system: HCT-15 colon
IGROV1 ovarian = system: IGROV1 ovarian
BT-549 breast = system: BT-549 breast

SMILES	TGI (OVCAR-4 ovarian)	TGI (MDA-MB-435)	TGI (NCI-H226 lung)	TGI (EKVX NSCLC)	TGI (MCF7 breast) [µM]	TGI (SK-OV-3 ovarian) [µM]	TGI (SK-MEL-2 melanoma)	TGI (HCT-15 colon) [µM]	TGI (IGROV1 ovarian) [µM]	TGI (BT-549 breast)	GI50 (OVCAR-4 ovarian)	GI50 (MDA-MB-435)	GI50 (NCI-H226 lung)	GI50 (EKVX NSCLC)	GI50 (MCF7 breast)	GI50 (SK-OV-3 ovarian)	GI50 (SK-MEL-2 melanoma)	GI50 (HCT-15 colon)	GI50 (IGROV1 ovarian)	GI50 (BT-549 breast)
CC(C)(CN1CCCCC1)C(=O)/C=C/c1ccc(/C=C/C(=O)C(C)(C)CN2CCCCC2)cc1	1.47 µM	0.984 µM	3.77 µM	4.21 µM	1.77	2.91	4.62 µM	0.703	1.52	3.35 µM	–	–	–	–	–	–	–	–	–	–
CS(=O)(=O)Nc1cncc(-c2ccc3ncnc(Nc4ccc(F)c(Cl)c4)c3c2)c1	96.6 µM	17 µM	21.3 µM	7.01 µM	8.77	6.54	3.79 µM	16	1.91	7.98 µM	4.96 µM	3.92 µM	2.57 µM	0.888 µM	1.49 µM	2.09 µM	1.5 µM	3.66 µM	0.34 µM	1.9 µM
CC(N)C(Cc1ccc(Cl)cc1)c1ccc(Cl)cc1 (centres undefined)	25.7 µM	20.7 µM	39.3 µM	22.4 µM	12.5	30.8	27 µM	17.5	18.7	28.1 µM	11.4 µM	8.2 µM	17.5 µM	9.22 µM	2.99 µM	16.8 µM	13 µM	4.15 µM	4.89 µM	13.7 µM
CCN(Cc1ccc(C)cc1)c1ccc(CO)c(Cl)c1	4.11 µM	28.5 µM	0.204 µM	29.4 µM	11	16.8	16.2 µM	23.2	0.938	19 µM	0.274 µM	13.7 µM	0.0702 µM	12.9 µM	0.191 µM	4.23 µM	2.2 µM	6.41 µM	0.108 µM	5 µM
CCN1C(=S)N(c2ccccc2)C2NC(=S)N(/N=C/C=C/c3ccccc3OC)C21 (centres undefined)	> 100 µM	0.337 µM	> 23.1 µM	> 100 µM	> 100	> 100	> 100 µM	> 100	> 100	–	0.839 µM	0.0775 µM	0.962 µM	0.505 µM	0.331 µM	0.647 µM	0.612 µM	0.344 µM	0.606 µM	0.954 µM
CC(=O)c1ccc2c(c1)c1cc(C(C)=O)ccc1n2CCNC(C)C	2.9 µM	1.44 µM	2.19 µM	4.97 µM	1.11	8.76	2.23 µM	3.82	6.73	3.97 µM	0.37 µM	0.364 µM	0.281 µM	0.548 µM	0.294 µM	1.25 µM	0.569 µM	0.352 µM	0.341 µM	1.29 µM
O=c1[nH]c2ccccc2c2ccccc12	> 100 µM	> 100 µM	> 100 µM	> 100 µM	> 100	> 100	> 100 µM	> 100	> 100	> 100 µM	60.7 µM	> 100 µM	> 100 µM	92.9 µM	> 100 µM	23.6 µM	> 100 µM	> 100 µM	> 100 µM	> 100 µM
O=Nc1ccc(O)c(=O)cc1	4.83 µM	13.2 µM	8.64 µM	23.4 µM	14	37.3	5.89 µM	9.62	11.3	8.75 µM	1.71 µM	3.28 µM	2.5 µM	6.93 µM	2.73 µM	16.2 µM	2.61 µM	2.37 µM	3.77 µM	2.86 µM
O=C(Cc1ccc(/C=C/C(=O)c2ncc[nH]2)cc1)Nc1ccc(F)cc1	> 33.3 µM	20.1 µM	> 33.3 µM	32.9 µM	4.62	> 33.3	19 µM	7.37	13.9	11.3 µM	9.14 µM	4.07 µM	9.85 µM	7.46 µM	0.995 µM	9.38 µM	7.47 µM	1.15 µM	2.66 µM	2.73 µM
O=S(=O)(NCCCNc1nccc(-c2c(-c3ccc(O)cc3)nc3sccn23)n1)c1ccc(F)cc1	9.92 µM	4.76 µM	10.1 µM	9.02 µM	5.91	8.88	2.81 µM	10	8.78	10.4 µM	3.36 µM	0.245 µM	2.15 µM	2.91 µM	2.16 µM	2.12 µM	1.18 µM	2.61 µM	2.85 µM	2.36 µM
CN(c1ncccc1CNc1nc(Nc2ccc3c(c2)CC(=O)N3)ncc1C(F)(F)F)S(C)(=O)=O	11 µM and > 10 µM	11.4 µM and > 10 µM	7.97 µM and > 10 µM	8.23 µM and > 10 µM	> 27	> 100	3.69 µM and 4.8 µM	> 80.5	> 100	7 µM and 9.25 µM	2.1 µM and 3.56 µM	1.46 µM and 2.74 µM	2.38 µM and 2.25 µM	1.84 µM and 2.64 µM	0.948 µM and 1.1 µM	5.04 µM and 4.61 µM	1.57 µM and 1.85 µM	5.14 µM and 4.9 µM	2.42 µM and 1.8 µM	2.21 µM and 2.53 µM
